Test results taken from patent US20170100447A1, “COMPOSITIONS BASED ON PLANT EXTRACTS FOR INHIBITION OF THE 5-ALPHA REDUCTASE” (BIONAP S.R.L., priority 2014, published 2017).

Test system: immortalized human sebocytes (SZ95 sebocyte line)
Test: MTT assay on testosterone-stimulated sebocytes
Format: cell-based
Conditions: testosterone 10^−6 M; 9 days
Method: The line of immortalized human sebocytes (SZ95 sebocyte line) has been cultivated in medium Sebomed (Biochrom) supplemented with fetal calf serum 10%, […] of recombining human epidermal growth factor, 1 mM Ca^2+ and 50 μg/ml gentamicin, in an atmosphere of CO2 5% at 37° C. The SZ95 cells have been subsequently plated on wells for the MTT assays and, after 24 hours of incubation in an atmosphere of CO2 5% at 37° C., have been treated with a new culture medium containing testosterone in a final concentration of 10^−6 M and the extracts, according to the indications reported in Table 1.
The cellular vitality has been assessed for each sample after 9 days of treatment through colorimetric MTT assay (according to the protocol as above described) and expressed in a percentage value with respect to control (0%) and to the treatment with testosterone (test=100%). Each experiment has been carried out in triplicate.

## C[C@]12CC[C@H]3[C@@H](CCC4=CC(=O)CC[C@@]43C)[C@@H]1CC[C@@H]2O [testosterone]
  effect of testosterone on cellular proliferation of SZ95 sebocytes: induces in these cells an increase of cellular proliferation
